From patent publication US20230002334A1, “TRPM8 MODULATORS” (Givaudan SA, priority 2019, published 2023)

molecular target: T1, hTRPM8 (Homo sapiens, UniProt Q7Z2W7); experiment: Assay on TRPM8 modulators: calcium imaging (Fluo-4, Flexstation) in HEK293 cell line stably expressing hTRPM8; format: cell-based; conditions: HEK293 cells stably expressing hTRPM8, calcium influx, sigmoidal dose-response fit; read-out: EC50
T1 construct: expressed in transfected cells
Experimental: A HEK293 cell line stably expressing hTRPM8 was generated according to Klein et al., (Chem. Senses 36: 649-658, 2011) and receptor activation was monitored by calcium imaging in a Flexstation. For Ca-imaging assays of TRPM8 channel activation, cells were seeded on day 0 at a density of 12000 cells per well in Dulbecco's modified Eagle medium (DMEM) containing 9% foetal bovine serum in black, clear bottom 96-well plates that had been coated with 0.001% polyethyleneimine (molecular weight=60 000, Acros Organics). On day 2, agonists were evaluated via calcium imaging using Fluo-4. Briefly, growth medium was discarded, and the cells were incubated in the dark for 1 h at 37° C. in 50 μL loading buffer consisting of 2.7 μM Fluo-4 AM (Invitrogen) and […] probenecid (Sigma-Aldrich) in DMEM (without serum). After incubation, the plates were washed five times with 100 μL of assay buffer (in mM: 130 NaCl, 5 KCl, 10 HEPES, 2 CaCl2, and 10 glucose, pH7.4.) and further incubated in the dark at room temperature for 30 min. The cells were then washed five times with 100 μL assay buffer and then calcium influx to serial dilutions of inventive compounds were measured in a Flexstation 3 (Molecular Devices). Receptor activation was initiated following addition of 20 μl of a 10-fold concentrated ligand stock solution, which is also prepared in assay buffer. Fluorescence was continuously monitored for 15 seconds prior to ligand addition and for 105 seconds after ligand addition, for a total of 120 seconds. Maximal receptor activation in relation to solvent control and relative to 31.6 μM menthol is determined. Data from serial dilutions were processed with a KNIME workflow to fit a sigmoidal dose-response curve and to extrapolate EC50 values.

T1 sequence (Q7Z2W7 whole entry): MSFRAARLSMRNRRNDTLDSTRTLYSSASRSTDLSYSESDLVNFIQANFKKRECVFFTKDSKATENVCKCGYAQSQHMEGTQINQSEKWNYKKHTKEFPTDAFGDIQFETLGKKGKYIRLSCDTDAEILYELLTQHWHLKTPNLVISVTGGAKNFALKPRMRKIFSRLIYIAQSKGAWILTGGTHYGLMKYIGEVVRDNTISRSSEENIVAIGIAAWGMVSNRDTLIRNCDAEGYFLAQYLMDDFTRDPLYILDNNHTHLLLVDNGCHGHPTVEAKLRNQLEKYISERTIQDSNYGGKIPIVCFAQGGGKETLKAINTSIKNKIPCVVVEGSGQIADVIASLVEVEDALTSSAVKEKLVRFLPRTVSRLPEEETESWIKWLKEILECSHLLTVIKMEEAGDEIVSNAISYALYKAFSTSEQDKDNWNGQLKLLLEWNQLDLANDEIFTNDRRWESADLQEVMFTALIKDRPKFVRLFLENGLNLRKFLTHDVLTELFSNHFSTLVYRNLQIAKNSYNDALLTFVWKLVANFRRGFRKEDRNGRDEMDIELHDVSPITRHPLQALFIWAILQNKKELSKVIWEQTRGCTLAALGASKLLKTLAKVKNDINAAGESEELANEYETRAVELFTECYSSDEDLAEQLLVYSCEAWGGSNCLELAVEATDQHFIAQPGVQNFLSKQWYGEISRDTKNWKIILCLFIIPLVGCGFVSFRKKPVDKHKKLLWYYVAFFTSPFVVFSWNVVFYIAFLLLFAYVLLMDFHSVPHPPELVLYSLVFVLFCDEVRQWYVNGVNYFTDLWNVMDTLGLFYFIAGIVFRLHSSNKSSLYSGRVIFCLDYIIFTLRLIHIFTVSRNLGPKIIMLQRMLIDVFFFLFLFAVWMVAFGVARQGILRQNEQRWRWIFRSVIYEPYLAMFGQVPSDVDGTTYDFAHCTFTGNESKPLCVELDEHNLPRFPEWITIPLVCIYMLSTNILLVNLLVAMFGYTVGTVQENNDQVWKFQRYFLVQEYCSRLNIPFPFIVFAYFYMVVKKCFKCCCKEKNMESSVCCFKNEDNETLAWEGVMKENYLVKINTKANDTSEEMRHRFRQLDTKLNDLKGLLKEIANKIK

| Structure (SMILES) | EC50 [nM] |
| --- | --- |
| Cc1ccc(C(F)(F)F)cc1[C@@]1(C)C[C@@H]2[C@@H]([C@@H](C)C1)N(C)OC2(C)C (racemic) [Compound 39, rac-(3aR,5R,7S,7aR)-1,3,3,5,7-pentamethyl-5-(2-methyl-5-(trifluoromethyl)phenyl)octahydrobenzo[c]isoxazole] | 300 to 1000 |
| CSc1ccc([C@@]2(C)C[C@@H]3[C@@H]([C@@H](C)C2)N(C)OC3(C)C)cc1 (racemic) [Compound 40, rac-(3aR,5R,7S,7aR)-1,3,3,5,7-pentamethyl-5-(4-(methylthio)phenyl)octahydrobenzo[c]isoxazole] | 50 to 300 |
| Cc1ccc([C@@]2(C)C[C@@H]3[C@@H]([C@@H](C)C2)N(C)OC3(C)C)s1 (racemic) [Compound 41, rac-(3aR,5R,7S,7aR)-1,3,3,5,7-pentamethyl-5-(5-methylthiophen-2-yl)octahydrobenzo[c]isoxazole] | 300 to 1000 |
| Cc1cc([C@@]2(C)C[C@@H]3[C@@H]([C@@H](C)C2)N(C)OC3(C)C)cs1 (racemic) [Compound 42, rac-(3aR,5R,7S,7aR)-1,3,3,5,7-pentamethyl-5-(5-methylthiophen-3-yl)octahydrobenzo[c]isoxazole] | 50 to 300 |
| Cc1cccc([C@@]2(C)C[C@@H]3[C@@H]([C@@H](C)C2)N(C)OC3(C)C)c1 (racemic) [Compound 43, rac-(3aR,5R,7S,7aR)-1,3,3,5,7-pentamethyl-5-(m-tolyl)octahydrobenzo[c]isoxazole] | 50 to 300 |
| C[C@H]1C[C@@](C)(c2cccc3ccccc23)C[C@@H]2[C@@H]1N(C)OC2(C)C (racemic) [Compound 44, rac-(3aR,5R,7S,7aR)-1,3,3,5,7-pentamethyl-5-(naphthalen-1-yl)octahydrobenzo[c]isoxazole] | 300 to 1000 |
| C[C@H]1C[C@@](C)(c2ccc3ccccc3c2)C[C@@H]2[C@@H]1N(C)OC2(C)C (racemic) [Compound 45, rac-(3aR,5R,7S,7aR)-1,3,3,5,7-pentamethyl-5-(naphthalen-2-yl)octahydrobenzo[c]isoxazole] | 50 to 300 |
| Cc1ccc([C@@]2(C)C[C@@H]3[C@@H]([C@@H](C)C2)N(C)OC3(C)C)cc1 (racemic) [Compound 47, rac-(3aR,5R,7S,7aR)-1,3,3,5,7-pentamethyl-5-(p-tolyl)octahydrobenzo[c]isoxazole] | 50 to 300 |
| CCC[C@@]1(C)C[C@@H]2[C@@H]([C@@H](C)C1)N(C)OC2(C)C (racemic) [Compound 49, rac-(3aR,5R,7S,7aR)-1,3,3,5,7-pentamethyl-5-propyloctahydrobenzo[c]isoxazole] | 300 to 1000 |
| Cc1ccccc1[C@H]1C[C@@H]2[C@@H]([C@@H](C)C1)N(C)OC2(C)C (racemic) [Compound 51, rac-(3aR,5R,7S,7aR)-1,3,3,7-tetramethyl-5-(o-tolyl)octahydrobenzo[c]isoxazole] | 300 to 1000 |
| C[C@H]1C[C@@H](c2ccccc2)C[C@@H]2[C@@H]1N(C)OC2(C)C (racemic) [Compound 52, rac-(3aR,5R,7S,7aR)-1,3,3,7-tetramethyl-5-phenyloctahydrobenzo[c]isoxazole] | 50 to 300 |
| CCN1OC(C)(C)[C@@H]2C[C@](C)(c3ccccc3C)C[C@H](C)[C@H]21 (racemic) [Compound 54, rac-(3aR,5R,7S,7aR)-1-ethyl-3,3,5,7-tetramethyl-5-(o-tolyl)octahydrobenzo[c]isoxazole] | < 50 |
| CCN1OC(C)(C)[C@@H]2C[C@](C)(c3ccccc3)C[C@H](C)[C@H]21 (racemic) [Compound 55, rac-(3aR,5R,7S,7aR)-1-ethyl-3,3,5,7-tetramethyl-5-phenyloctahydrobenzo[c]isoxazole] | 50 to 300 |
| CCN1OC(C)(C)[C@@H]2C[C@H](C)C[C@H](C)[C@H]21 (racemic) [Compound 56, rac-(3aR,5R,7S,7aR)-1-ethyl-3,3,5,7-tetramethyloctahydrobenzo[c]isoxazole] | 1000 to 35000 |
| CCN1OC(C)(C)[C@@H]2C[C@H](c3ccccc3OC)C[C@H](C)[C@H]21 (racemic) [Compound 57, rac-(3aR,5R,7S,7aR)-1-ethyl-5-(2-methoxyphenyl)-3,3,7-trimethyloctahydrobenzo[c]isoxazole] | < 50 |
| COc1cccc([C@@]2(C)C[C@@H]3[C@@H]([C@@H](C)C2)N(C(C)C)OC3(C)C)n1 (racemic) [Compound 68, rac-(3aR,5R,7S,7aR)-1-isopropyl-5-(6-methoxypyridin-2-yl)-3,3,5,7-tetramethyloctahydrobenzo[c]isoxazole] | 300 to 1000 |
| Cc1cccc([C@@]2(C)C[C@@H]3[C@@H]([C@@H](C)C2)N(C)OC3(C)C)c1C (racemic) [Compound 69, rac-(3aR,5R,7S,7aR)-5-(2,3-dimethylphenyl)-1,3,3,5,7-pentamethyloctahydrobenzo[c]isoxazole] | 50 to 300 |
| C[C@H]1C[C@@](C)(c2ccc(F)cc2F)C[C@@H]2[C@@H]1N(C)OC2(C)C (racemic) [Compound 70, rac-(3aR,5R,7S,7aR)-5-(2,4-difluorophenyl)-1,3,3,5,7-pentamethyloctahydrobenzo[c]isoxazole] | 50 to 300 |
| Cc1ccc([C@@]2(C)C[C@@H]3[C@@H]([C@@H](C)C2)N(C)OC3(C)C)c(C)c1 (racemic) [Compound 71, rac-(3aR,5R,7S,7aR)-5-(2,4-dimethylphenyl)-1,3,3,5,7-pentamethyloctahydrobenzo[c]isoxazole] | 50 to 300 |
| Cc1ccc([C@H]2C[C@@H]3[C@@H]([C@@H](C)C2)N(C)OC3(C)C)c(C)c1 (racemic) [Compound 72, rac-(3aR,5R,7S,7aR)-5-(2,4-dimethylphenyl)-1,3,3,7-tetramethyloctahydrobenzo[c]isoxazole] | 50 to 300 |
| C[C@H]1C[C@@](C)(c2cc(F)ccc2F)C[C@@H]2[C@@H]1N(C)OC2(C)C (racemic) [Compound 73, rac-(3aR,5R,7S,7aR)-5-(2,5-difluorophenyl)-1,3,3,5,7-pentamethyloctahydrobenzo[c]isoxazole] | 50 to 300 |
| Cc1ccc(C)c([C@@]2(C)C[C@@H]3[C@@H]([C@@H](C)C2)N(C)OC3(C)C)c1 (racemic) [Compound 74, rac-(3aR,5R,7S,7aR)-5-(2,5-dimethylphenyl)-1,3,3,5,7-pentamethyloctahydrobenzo[c]isoxazole] | < 50 |

Now from value to compound:

| EC50 [nM] | Structure (SMILES) |
| --- | --- |
| 50 to 300 | CCN1OC(C)(C)[C@@H]2C[C@](C)(CC=C(C)C)C[C@H](C)[C@H]21 (racemic) [Compound 53, rac-(3aR,5R,7S,7aR)-1-ethyl-3,3,5,7-tetramethyl-5-(3-methylbut-2-en-1-yl)octahydrobenzo[c]isoxazole] |
| 50 to 300 | CC(C)=CC[C@@]1(C)C[C@@H]2[C@@H]([C@@H](C)C1)N(C(C)C)OC2(C)C (racemic) [Compound 58, rac-(3aR,5R,7S,7aR)-1-isopropyl-3,3,5,7-tetramethyl-5-(3-methylbut-2-en-1-yl)octahydrobenzo[c]isoxazole] |
| 50 to 300 | Cc1ccccc1[C@@]1(C)C[C@@H]2[C@@H]([C@@H](C)C1)N(C(C)C)OC2(C)C (racemic) [Compound 59, rac-(3aR,5R,7S,7aR)-1-isopropyl-3,3,5,7-tetramethyl-5-(o-tolyl)octahydrobenzo[c]isoxazole] |
| 50 to 300 | CC(C)N1OC(C)(C)[C@@H]2C[C@](C)(c3ccccc3)C[C@H](C)[C@H]21 (racemic) [Compound 60, rac-(3aR,5R,7S,7aR)-1-isopropyl-3,3,5,7-tetramethyl-5-phenyloctahydrobenzo[c]isoxazole] |
| 1000 to 35000 | CCC[C@@]1(C)C[C@@H]2[C@@H]([C@@H](C)C1)N(C(C)C)OC2(C)C (racemic) [Compound 61, rac-(3aR,5R,7S,7aR)-1-isopropyl-3,3,5,7-tetramethyl-5-propyloctahydrobenzo[c]isoxazole] |
| 300 to 1000 | CC(C)=CC[C@H]1C[C@@H]2[C@@H]([C@@H](C)C1)N(C(C)C)OC2(C)C (racemic) [Compound 62, rac-(3aR,5R,7S,7aR)-1-isopropyl-3,3,7-trimethyl-5-(3-methylbut-2-en-1-yl)octahydrobenzo[c]isoxazole] |
| 300 to 1000 | Cc1ccccc1[C@H]1C[C@@H]2[C@@H]([C@@H](C)C1)N(C(C)C)OC2(C)C (racemic) [Compound 63, rac-(3aR,5R,7S,7aR)-1-isopropyl-3,3,7-trimethyl-5-(o-tolyl)octahydrobenzo[c]isoxazole] |
| 50 to 300 | COc1ccccc1[C@@]1(C)C[C@@H]2[C@@H]([C@@H](C)C1)N(C(C)C)OC2(C)C (racemic) [Compound 65, rac-(3aR,5R,7S,7aR)-1-isopropyl-5-(2-methoxyphenyl)-3,3,5,7-tetramethyloctahydrobenzo[c]isoxazole] |
| 1000 to 35000 | COc1ccc([C@@]2(C)C[C@@H]3[C@@H]([C@@H](C)C2)N(C(C)C)OC3(C)C)cc1 (racemic) [Compound 67, rac-(3aR,5R,7S,7aR)-1-isopropyl-5-(4-methoxyphenyl)-3,3,5,7-tetramethyloctahydrobenzo[c]isoxazole] |
| 300 to 1000 | Cc1ccc(C)c([C@H]2C[C@@H]3[C@@H]([C@@H](C)C2)N(C)OC3(C)C)c1 (racemic) [Compound 75, rac-(3aR,5R,7S,7aR)-5-(2,5-dimethylphenyl)-1,3,3,7-tetramethyloctahydrobenzo[c]isoxazole] |
